Like-named read-outs stand apart in the source and are kept apart here.
Experiments:
[1] = tested on: complex I-linked respiration in isolated mitochondria; test: Complex I-linked respiration, high-resolution respirometry in isolated mitochondria; format: biochemical, pig; details: for IC50: four-parameter logistic; for IC50 / Residual Activity, complex I-linked respiration: mean ± SEM, four measurements
Experimental: (§1) The mitochondrial fraction was isolated and purified from the pig brain cortex. For high-resolution respirometry and ATP assays, freshly prepared mitochondria were kept on ice. Part of the mitochondria was frozen, stored at −70 °C, and used to determinate mitochondrial enzymes activities (ETC complexes, CS, malate dehydrogenase, and MAO).
The high-resolution Oxygraph-2k (Oroboros Instruments Corp, Innsbruck, Austria) was used to measure mitochondrial oxygen consumption rate.
(§2) Respiration rate (oxygen flux) was quantified as the number of pmol of oxygen consumed per second per mg of a protein.
(§3) Four-parametric logistic regression was used to analyze inhibition of respiratory rate and MAO activity to determine half-maximal inhibitory concentration (IC50), residual activity, and Hill slope. Prism software from GraphPad (San Diego, CA, USA) was used for this analysis.

MAO-A = target: T1, MAO-A (Sus scrofa, UniProt Q6Q2J0); test: MAO-A activity, radiolabeled [3H]serotonin substrate, pig brain mitochondria; format: biochemical
T1 construct: from tissue; host or cells: pig brain cortex mitochondria
T1 sequence (Q6Q2J0 1-527): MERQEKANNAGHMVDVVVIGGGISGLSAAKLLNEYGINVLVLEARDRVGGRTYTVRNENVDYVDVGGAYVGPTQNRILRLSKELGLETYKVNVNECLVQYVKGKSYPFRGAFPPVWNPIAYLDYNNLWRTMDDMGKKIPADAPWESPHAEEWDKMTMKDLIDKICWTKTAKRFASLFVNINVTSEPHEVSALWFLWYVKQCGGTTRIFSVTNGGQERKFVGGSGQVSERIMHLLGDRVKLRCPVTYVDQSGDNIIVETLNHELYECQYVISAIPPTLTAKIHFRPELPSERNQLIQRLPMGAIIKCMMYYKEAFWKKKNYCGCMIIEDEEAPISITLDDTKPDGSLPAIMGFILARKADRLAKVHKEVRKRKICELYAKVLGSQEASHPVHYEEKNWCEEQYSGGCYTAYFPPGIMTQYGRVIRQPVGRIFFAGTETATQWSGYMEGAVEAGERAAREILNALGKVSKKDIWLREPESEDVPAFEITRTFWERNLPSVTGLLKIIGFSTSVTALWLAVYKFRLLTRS
Experimental: (§4) KH buffer was used to preincubate mitochondria (final concentration of 800 µg/mL) with the tested drugs (concentration range of 0.1–300 µmol/L). MAO enzymatic activity was measured using radiolabeled substrates ([^3H]serotonin for MAO-A and [^14C]PEA for MAO-B). The reaction was terminated with hydrochloric acid, the organic phase was separated, and the radioactivity was determined by liquid scintillation counting (LS 6000IC, Beckman Instruments, Inc., Fullerton, CA, USA).
as §3

MAO-B = target: T2, MAO-B (Sus scrofa, UniProt Q6PLK3); test: MAO-B activity, radiolabeled [14C]PEA substrate, pig brain mitochondria; format: biochemical; details: for IC50 / Hill Slope, MAO-B / Residual Activity, MAO-B: mean ± SEM, four measurements
T2 construct: from tissue; host or cells: pig brain cortex mitochondria
T2 sequence (Q6PLK3 1-520): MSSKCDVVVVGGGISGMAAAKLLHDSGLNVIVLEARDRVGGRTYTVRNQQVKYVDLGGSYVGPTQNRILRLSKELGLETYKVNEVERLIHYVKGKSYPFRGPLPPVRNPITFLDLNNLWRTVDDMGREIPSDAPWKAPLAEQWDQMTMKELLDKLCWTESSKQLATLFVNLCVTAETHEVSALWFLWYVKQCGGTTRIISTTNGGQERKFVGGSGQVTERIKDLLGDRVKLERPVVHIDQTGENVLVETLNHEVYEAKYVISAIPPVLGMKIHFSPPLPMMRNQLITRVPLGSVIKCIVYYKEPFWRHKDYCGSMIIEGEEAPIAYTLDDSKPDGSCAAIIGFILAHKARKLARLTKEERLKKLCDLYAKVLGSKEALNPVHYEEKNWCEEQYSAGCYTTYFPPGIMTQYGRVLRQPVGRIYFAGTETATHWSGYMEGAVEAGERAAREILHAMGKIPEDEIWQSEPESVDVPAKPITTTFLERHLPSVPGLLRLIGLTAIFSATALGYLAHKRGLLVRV
Experimental: as §4, §3

citrate synthase (CS) = target: T3, citrate synthase (CS) (Sus scrofa, UniProt P00889); test: Activity of citrate synthase in pig brain mitochondria; format: biochemical; details: mean ± SD, N = 3
T3 construct: used to determinate mitochondrial enzymes activities (ETC complexes, CS, malate dehydrogenase, and MAO); from tissue; host or cells: pig brain cortex mitochondria (frozen, ultrasonicated)
T3 sequence (P00889 28-464): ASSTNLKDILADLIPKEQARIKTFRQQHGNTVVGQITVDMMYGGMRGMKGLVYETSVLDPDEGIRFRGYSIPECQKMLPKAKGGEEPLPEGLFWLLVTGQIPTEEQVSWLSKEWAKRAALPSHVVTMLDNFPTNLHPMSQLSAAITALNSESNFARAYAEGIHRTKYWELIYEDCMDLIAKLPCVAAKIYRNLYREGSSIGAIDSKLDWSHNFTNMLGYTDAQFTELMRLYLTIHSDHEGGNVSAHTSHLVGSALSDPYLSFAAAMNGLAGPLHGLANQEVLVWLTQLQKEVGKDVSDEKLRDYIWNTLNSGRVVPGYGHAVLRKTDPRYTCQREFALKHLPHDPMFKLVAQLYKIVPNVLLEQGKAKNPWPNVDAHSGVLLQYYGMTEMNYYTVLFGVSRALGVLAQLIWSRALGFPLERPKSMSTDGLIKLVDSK
Experimental: Ultrasonicated mitochondria were incubated with the tested drugs for 30 min at 30 °C, with a corresponding drug-free control for every measurement. The activities of mitochondrial enzymes were determined as the absorbance measured with a GENESYS 180 UV-Vis spectrophotometer (Thermo Fisher Scientific, Waltham, MA, USA). […] […] […] An ATP standard curve was constructed.

[2] = target: T4, malate dehydrogenase (MDH) (Sus scrofa, UniProt P00346); test: Activity of malate dehydrogenase in pig brain mitochondria; format: biochemical; details: mean ± SD, N = 3
T4 construct: used to determinate mitochondrial enzymes activities (ETC complexes, CS, malate dehydrogenase, and MAO); from tissue; host or cells: pig brain cortex mitochondria (frozen, ultrasonicated)
T4 sequence (P00346 25-338): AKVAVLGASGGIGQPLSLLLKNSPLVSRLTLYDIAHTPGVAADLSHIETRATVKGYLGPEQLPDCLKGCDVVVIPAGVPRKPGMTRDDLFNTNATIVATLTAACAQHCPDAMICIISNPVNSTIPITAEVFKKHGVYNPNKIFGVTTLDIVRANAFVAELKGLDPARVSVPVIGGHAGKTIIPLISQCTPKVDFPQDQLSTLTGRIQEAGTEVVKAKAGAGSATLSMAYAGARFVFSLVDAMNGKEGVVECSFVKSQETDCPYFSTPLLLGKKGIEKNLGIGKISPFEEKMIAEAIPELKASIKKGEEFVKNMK
Experimental: Ultrasonicated mitochondria were incubated with the tested drugs for 30 min at 30 °C, with a corresponding drug-free control for every measurement. The activities of mitochondrial enzymes were determined as the absorbance measured with a GENESYS 180 UV-Vis spectrophotometer (Thermo Fisher Scientific, Waltham, MA, USA). The conversion of oxaloacetate to malate was used to measure malate dehydrogenase (MDH) activity. The reaction was started by adding oxaloacetate and nicotinamide adenine dinucleotide (NADH) (measured at 340 nm for 3 min). […] […] An ATP standard curve was constructed.

[3] = tested on: complex II-linked respiration in isolated mitochondria; test: Complex II-linked respiration, high-resolution respirometry in isolated mitochondria; format: biochemical, pig
Experimental: as §1
The high-resolution Oxygraph-2k (Oroboros Instruments Corp, Innsbruck, Austria) was used to measure mitochondrial oxygen consumption rate. […] The final protein concentration was 0.05–0.14 mg/mL.
as §2, §3

SMILES	Inhibition (partial/full), complex I-linked respiration [1]	IC50 [1]	Residual Activity, complex I-linked respiration [1]	Inhibition (partial/full), MAO-A (MAO-A)	IC50 (MAO-A; mean ± SEM, four measurements)	Inhibition (partial/full), MAO-B (MAO-B)	IC50 (MAO-B)	CS (% of control) (citrate synthase (CS); 10 μM)	CS (% of control) (citrate synthase (CS); 100 μM)	MDH (% of control) ([2]; 10 μM)	MDH (% of control) ([2]; 100 μM)	Residual Activity, MAO-A (MAO-A; mean ± SEM, four measurements)	Hill Slope, MAO-B (MAO-B)	Residual Activity, MAO-B (MAO-B)	further results
CN(C)CCC[C@@]1(c2ccc(F)cc2)OCc2cc(C#N)ccc21 [escitalopram]	partial	0.14 ± 0.08 µM	0.774 ± 0.015 rel.u.	full	8.78 ± 2.27 µM	full	15.2 ± 2.23 µM								Inhibition (partial/full), MAO-A (MAO-A; listed as ESC): full inhibitors; Inhibition (partial/full), MAO-B (MAO-B; listed as ESC): full inhibitors
CC(NC(C)(C)C)C(=O)c1cccc(Cl)c1 (stereo not shown) [bupropion]				partial	20.1 ± 5.68 µM	partial	31.5 ± 3.32 µM	105.6 ± 1.29 % of control	99.5 ± 0.93 % of control	99.2 ± 2.90 % of control	99.6 ± 2.72 % of control	0.235 ± 0.050 rel.u.	1.68 ± 0.20	0.410 ± 0.018 rel.u.	Inhibition (partial/full), complex II-linked respiration [3]: partial; IC50 ([3]; four-parameter logistic, mean ± SEM, four measurements): 10.6 ± 4.49 µM; Inhibition (partial/full), complex II-linked respiration ([3]; listed as BUP): weak partial inhibitor; Residual Activity, complex II-linked respiration ([3]; mean ± SEM, four measurements): 0.690 ± 0.045 rel.u.; Inhibition (partial/full), MAO-A (MAO-A; listed as BUP): partial inhibitors; Inhibition (partial/full), MAO-B (MAO-B; listed as BUP): partial MAO-B inhibitors
Fc1ccc([C@@H]2CCNC[C@H]2COc2ccc3c(c2)OCO3)cc1 [paroxetine]	partial	26.7 ± 6.73 µM	0.672 ± 0.029 rel.u.	full	0.47 ± 0.06 µM	full	2.19 ± 0.21 µM	105.8 ± 1.69 % of control	98.4 ± 0.85 % of control	100.1 ± 2.22 % of control	97.9 ± 1.71 % of control	0.007 ± 0.017 rel.u.	1.06 ± 0.10	0.015 ± 0.021 rel.u.	Inhibition (partial/full), MAO-A (MAO-A; listed as PAR): full inhibitors; Hill Slope, MAO-A (MAO-A; mean ± SEM, four measurements): 1.65 ± 0.22; Inhibition (partial/full), MAO-B (MAO-B; listed as PAR): full inhibitors

— publication PMC10294837 (Antioxidants, 2023)
